# From PubChem BioAssay (NCI)
#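 A five-concentration, 48-hour dose response in 96-well plates underlies each endpoint, interpolated linearly between surrounding concentrations. GI50 marks 50% less growth. TGI: concentration producing complete growth inhibition.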
# Legend:
# Assay in all cases: growth of human tumour cells (NCI), 48 h
# [1] = test system: SK-OV-3 ovarian
# [2] = test system: SK-MEL-28 melanoma
# [3] = test system: T-47D breast
# [4] = test system: HOP-62 NSCLC
# [5] = test system: HCC-2998 colon
# [6] = test system: HL-60(TB) leukemia
# [7] = test system: MDA-MB-435
# [8] = test system: K-562 leukemia
# [9] = test system: NCI-H460 lung
# [10] = test system: SF-268 CNS
# [11] = test system: M14 melanoma
# [12] = test system: SK-MEL-2 melanoma
# [13] = test system: CAKI-1 renal
# [14] = test system: RPMI-8226 leukemia
# [15] = test system: 786-0 renal
# [16] = test system: BT-549 breast
# [17] = test system: LOX IMVI melanoma
# [18] = test system: CCRF-CEM leukemia
# [19] = test system: OVCAR-5 ovarian
# [20] = test system: SR leukemia
# [21] = test system: UO-31 renal
# [22] = test system: NCI/ADR-RES ovarian
# [23] = test system: OVCAR-3 ovarian
# [24] = test system: PC-3 prostate
# [25] = test system: NCI-H226 lung
# [26] = test system: OVCAR-8 ovarian
# [27] = test system: ACHN renal
# [28] = test system: HT29 colon
# [29] = test system: OVCAR-4 ovarian
# [30] = test system: A549 NSCLC
# [31] = test system: SW-620 colon
# [32] = test system: TK-10 renal
# [33] = test system: MCF7 breast
# [34] = test system: SNB-19 CNS
# [35] = test system: HCT-15 colon
# [36] = test system: NCI-H522 lung
# [37] = test system: KM12 colon
# [38] = test system: HCT-116 colon
# [39] = test system: SNB-75 CNS
# [40] = test system: IGROV1 ovarian
# [41] = test system: SF-295 CNS
# [42] = test system: MDA-MB-231 breast
# [43] = test system: HS 578T breast
# [44] = test system: HOP-92 NSCLC
# [45] = test system: NCI-H23 lung
# [46] = test system: U251 CNS
# [47] = test system: DU-145 prostate
# [48] = test system: MALME-3M melanoma
# [49] = test system: COLO 205 colon
# [50] = test system: A498 renal
# [51] = test system: SK-MEL-5 melanoma
# [52] = test system: UACC-62 melanoma
# [53] = test system: SF-539 CNS
# [54] = test system: MOLT-4 leukemia
# [55] = test system: UACC-257 melanoma
# [56] = test system: RXF 393 renal
# [57] = test system: SN12C renal
smiles,measurement,setting,value
COc1cc(-c2cc(/C=C3\C(=O)Nc4cc(Cl)ccc43)[nH]n2)cc(OC)c1OC,GI50,[1],3.29 µM
same,TGI,[1],25.1 µM
same,GI50,[2],3.91 µM
same,TGI,[2],26.4 µM
same,GI50,[3],2.13 µM
same,TGI,[3],6.79 µM
same,GI50,[4],2.16 µM
same,TGI,[4],6.46 µM
same,GI50,[5],7.42 µM
same,TGI,[5],> 100 µM
same,GI50,[6],2.45 µM
same,TGI,[6],7.59 µM
same,GI50,[7],1.96 µM
same,TGI,[7],4.18 µM
same,GI50,[8],2.82 µM
same,TGI,[8],22.6 µM
same,GI50,[9],2.1 µM
same,TGI,[9],4.9 µM
same,GI50,[10],3.36 µM
same,TGI,[10],29.1 µM
same,GI50,[11],2.42 µM
same,TGI,[11],6.99 µM
same,GI50,[12],2.75 µM
same,TGI,[12],7.5 µM
same,GI50,[13],2.71 µM
same,TGI,[13],22.5 µM
same,GI50,[14],2.02 µM
same,TGI,[14],4.92 µM
same,GI50,[15],14.4 µM
same,TGI,[15],60.1 µM
same,GI50,[16],2.54 µM
same,TGI,[16],7.58 µM
same,GI50,[17],1.81 µM
same,TGI,[17],4.06 µM
same,GI50,[18],2.63 µM
same,TGI,[18],8.43 µM
same,GI50,[19],4.27 µM
same,TGI,[19],78.1 µM
same,GI50,[20],2.33 µM
same,TGI,[20],5.66 µM
same,GI50,[21],2.66 µM
same,TGI,[21],15.6 µM
same,GI50,[22],2.74 µM
same,TGI,[22],7.49 µM
same,GI50,[23],2.74 µM
same,TGI,[23],15.1 µM
same,GI50,[24],2.25 µM
same,TGI,[24],7.83 µM
same,GI50,[25],2.29 µM
same,TGI,[25],7.94 µM
same,GI50,[26],2.17 µM
same,TGI,[26],5.32 µM
same,GI50,[27],3.48 µM
same,TGI,[27],25.6 µM
same,GI50,[28],3.46 µM
same,TGI,[28],18.6 µM
same,GI50,[29],2.91 µM
same,TGI,[29],15 µM
same,GI50,[30],3.23 µM
same,TGI,[30],15 µM
same,GI50,[31],2.87 µM
same,TGI,[31],14.9 µM
same,GI50,[32],5.95 µM
same,TGI,[32],32.3 µM
same,GI50,[33],2.26 µM
same,TGI,[33],6.39 µM
same,GI50,[34],3.45 µM
same,TGI,[34],> 100 µM
same,GI50,[35],2.59 µM
same,TGI,[35],7.77 µM
same,GI50,[36],2.4 µM
same,TGI,[36],6.09 µM
same,GI50,[37],2.27 µM
same,TGI,[37],6.93 µM
same,GI50,[38],2.74 µM
same,TGI,[38],10.3 µM
same,GI50,[39],1.87 µM
same,TGI,[39],8.17 µM
same,GI50,[40],3.45 µM
same,TGI,[40],37.2 µM
same,GI50,[41],2.84 µM
same,TGI,[41],8.89 µM
same,GI50,[42],3.14 µM
same,TGI,[42],> 100 µM
same,GI50,[43],2.74 µM
same,TGI,[43],9.31 µM
same,GI50,[44],1.77 µM
same,TGI,[44],8.89 µM
same,GI50,[45],3.84 µM
same,TGI,[45],18.1 µM
same,GI50,[46],2.84 µM
same,TGI,[46],14.8 µM
same,GI50,[47],3.46 µM
same,TGI,[47],14.5 µM
same,GI50,[48],2.71 µM
same,TGI,[48],6.96 µM
same,GI50,[49],1.93 µM
same,TGI,[49],4.36 µM
same,GI50,[50],2.24 µM
same,TGI,[50],8.22 µM
same,GI50,[51],1.43 µM
same,TGI,[51],2.79 µM
same,GI50,[52],1.76 µM
same,TGI,[52],4.3 µM
same,GI50,[53],3.92 µM
same,TGI,[53],21.8 µM
same,GI50,[54],2.48 µM
same,TGI,[54],6.43 µM
same,GI50,[55],2.43 µM
same,TGI,[55],6.13 µM
same,GI50,[56],5.66 µM
same,TGI,[56],42 µM
same,GI50,[57],2.68 µM
same,TGI,[57],14.2 µM
